Measurements taken from ChEMBL document CHEMBL5579815, “Novel angiogenesis inhibitors with superoxide anion radical amplification effect: Surmounting the Achilles' heels of angiogenesis inhibitors and photosensitizers” (Eur J Med Chem, 2024).
Calls of active or inactive are those of the source. No cut-off for these calls is given here.

What was measured:
[1] = Induction of ROS generation in methanol solution assessed as increase in singlet oxygen level by measuring reduction in ABDA absorption peak at 10 uM irradiated with 650 nm 10 mW/cm2 light for upto 9 mins by ABDA probe based UV-vis absorption spectra analysis; format: functional
[2] = Induction of ROS generation in methanol solution assessed as increase in superoxide anion radical level by measuring fold increase in DHR123 fluorescence intensity at 10 uM irradiated with 650 nm 10 mW/cm2 light for upto 15 mins by DHR123 probe based fluorescence spectra analysis relative to control; format: functional
SK-MEL-28 [3] = assay: (§1) Cytotoxicity against human SK-MEL-28 cells assessed as reduction in cell viability preincubated for 24 hrs under hypoxic condition followed by media removal and irradiated with 650 nm 10 mW/cm2 light for 15 mins under hypoxic condition prior to media replacement and measured after 24 hrs by MTT assay; format: functional, cell-based; details: SK-MEL-28, light or radiation study
[4] = Dark toxicity in human SK-MEL-28 cells assessed as reduction in cell viability by MTT assay; format: cell-based
A549 [5] = assay: as §1, with “A549” for “SK-MEL-28”, “viability at 0.008 to 1 uM” for “viability”, “normoxic” for “hypoxic”; format: functional, cell-based; details: dose 0.008-1 µM
A549 [6] = assay: as §1, with “A549” for “SK-MEL-28”, “viability at 0.008 to 1 uM” for “viability”; format: functional, cell-based; details: dose 0.008-1 µM
U-87 MG [7] = assay: as §1, with “U87” for “SK-MEL-28”, “viability at 0.008 to 1 uM” for “viability”, “normoxic” for “hypoxic”; format: functional, cell-based; details: U-87MG ATCC, dose 0.008-1 µM
U-87 MG [8] = assay: as §1, with “U87” for “SK-MEL-28”, “viability at 0.008 to 1 uM” for “viability”; format: functional, cell-based; details: U-87MG ATCC, dose 0.008-1 µM
EA.hy 926 [9] = assay: as §1, with “Antiangiogenic activity in” for “Cytotoxicity against”, “EA.hy 926” for “SK-MEL-28”, “viability at 0.008 to 1 uM” for “viability”, “normoxic” for “hypoxic”; format: functional, cell-based; details: dose 0.008-1 µM
EA.hy 926 [10] = assay: as §1, with “Antiangiogenic activity in” for “Cytotoxicity against”, “EA.hy 926” for “SK-MEL-28”, “viability at 0.008 to 1 uM” for “viability”; format: functional, cell-based; details: dose 0.008-1 µM
HEK293 = assay: Dark toxicity in HEK293 cells assessed as reduction in cell viability at 0.078 to 10 uM by MTT assay; format: cell-based; details: human, hek293, 10 µM; dose 0.078-10 µM
[11] = Drug uptake in human SK-MEL-28 cells at 1 uM measured after 24 hrs by flow cytometry; format: ADME, cell-based; details: sk-mel-28, 24 h
[12] = Drug uptake in HEK293 cells at 1 uM measured after 24 hrs by flow cytometry; format: ADME, cell-based; details: human, hek293, 24 h
SK-MEL-28 [13] = assay: Induction of ROS generation in human SK-MEL-28 cells at 1 uM incubated for 24 hrs under normoxic condition prior to DHE addition for 30 mins followed by media removal and irradiated with 650 nm 10 mW/cm2 light for 15 mins under normoxic condition by DAPI staining based fluorescence microscopy; format: functional, cell-based
SK-MEL-28 [14] = assay: Induction of ROS generation in human SK-MEL-28 cells at 1 uM incubated for 24 hrs under hypoxic condition prior to DHE addition for 30 mins followed by media removal and irradiated with 650 nm 10 mW/cm2 light for 15 mins under hypoxic condition by DAPI staining based fluorescence microscopy; format: functional, cell-based
SK-MEL-28 [15] = assay: (§2) Induction of apoptosis in human SK-MEL-28 cells assessed as viable cells at 0.5 uM preincubated for 24 hrs under hypoxic condition followed by media removal and irradiated with 650 nm 10 mW/cm2 light for 15 mins under hypoxic condition by Annexin V-FITC/propidium iodide staining based flow cytometry (reference value: 93.62%); format: functional; details: SK-MEL-28, light or radiation study, read-out: Activity
SK-MEL-28 [16] = assay: as §2, with “early apoptotic” for “viable”, “1.8%)” for “93.62%)”; format: functional
SK-MEL-28 [17] = assay: as §2, with “necrotic” for “viable”, “2.63%)” for “93.62%)”; format: functional
SK-MEL-28 [18] = assay: as §2, with “early apoptotic” for “viable”, “1” for “0.5”, “1.8%)” for “93.62%)”; format: functional
SK-MEL-28 [19] = assay: as §2, with “late apoptotic” for “viable”, “1” for “0.5”, “1.95%)” for “93.62%)”; format: functional
SK-MEL-28 [20] = assay: as §2, with “necrotic” for “viable”, “1” for “0.5”, “2.63%)” for “93.62%)”; format: functional
SK-MEL-28 [21] = assay: as §2, with “2” for “0.5”; format: functional; details: SK-MEL-28, light or radiation study, read-out: Activity
SK-MEL-28 [22] = assay: as §2, with “early apoptotic” for “viable”, “2” for “0.5”, “1.8%)” for “93.62%)”; format: functional
SK-MEL-28 [23] = assay: as §2, with “late apoptotic” for “viable”, “2” for “0.5”, “1.95%)” for “93.62%)”; format: functional
SK-MEL-28 [24] = assay: as §2, with “early apoptotic” for “viable”, “normoxic” for “hypoxic”, “1.8%)” for “93.62%)”; format: functional
SK-MEL-28 [25] = assay: as §2, with “late apoptotic” for “viable”, “normoxic” for “hypoxic”, “1.95%)” for “93.62%)”; format: functional
SK-MEL-28 [26] = assay: as §2, with “necrotic” for “viable”, “normoxic” for “hypoxic”, “2.63%)” for “93.62%)”; format: functional
SK-MEL-28 [27] = assay: as §2, with “early apoptotic” for “viable”, “1” for “0.5”, “normoxic” for “hypoxic”, “1.8%)” for “93.62%)”; format: functional
SK-MEL-28 [28] = assay: as §2, with “necrotic” for “viable”, “1” for “0.5”, “normoxic” for “hypoxic”, “2.63%)” for “93.62%)”; format: functional
SK-MEL-28 [29] = assay: as §2, with “2” for “0.5”, “normoxic” for “hypoxic”; format: functional; details: SK-MEL-28, light or radiation study, read-out: Activity
SK-MEL-28 [30] = assay: as §2, with “necrotic” for “viable”, “2” for “0.5”, “normoxic” for “hypoxic”, “2.63%)” for “93.62%)”; format: functional
SK-MEL-28 [31] = assay: Induction of apoptosis in human SK-MEL-28 cells preincubated for 24 hrs under normoxic condition followed by media removal and irradiated with 650 nm 10 mW/cm2 light for 15 mins under normoxic condition by Annexin V-FITC/propidium iodide staining based flow cytometry; format: functional, cell-based; details: dose 0.5-2 µM

In the case of CCN(CC)c1ccc2nc3c4ccccc4/c(=N\CCCCCCNC(=O)c4cc(Oc5ccc(NC(=O)Nc6ccc(Cl)c(C(F)(F)F)c6)cc5)ccn4)cc-3sc2c1, the Activity [1] is reported as “inactive”, the fold change (FC) [2] is reported as 6.6 and the IC50 (SK-MEL-28 [3]) is reported as 0.158 µM. For the same molecule, the IC50 [4] was > 10 µM, the Activity (A549 [5]) was “Active” and the Activity (A549 [6]) was “Active”. For the same molecule, the Activity (U-87 MG [7]) was “Active”, the Activity (U-87 MG [8]) was “Active” and the Activity (EA.hy 926 [9]) was “Active”. The Activity (EA.hy 926 [10]) was “Active”, the Activity (HEK293) was “Non-Toxic” and the Drug uptake [11] was “Active”. The Drug uptake [12] was “Active”, the Activity (SK-MEL-28 [13]) was “Active” and the Activity (SK-MEL-28 [14]) was “Active”. It also gave a viability at 0.5 µM (SK-MEL-28 [15]) of 78.3%, an Activity (SK-MEL-28 [16]) of 3.13% and an Activity (SK-MEL-28 [17]) of 11.5%. The Activity (SK-MEL-28 [18]) was 3.97%, the Activity (SK-MEL-28 [19]) was 7.57% and the Activity (SK-MEL-28 [20]) was 19.45%. It also gave a viability at 2 µM (SK-MEL-28 [21]) of 53%, an Activity (SK-MEL-28 [22]) of 10.55% and an Activity (SK-MEL-28 [23]) of 17.67%. For the same molecule, the Activity (SK-MEL-28 [24]) was 12.86%, the Activity (SK-MEL-28 [25]) was 2.86% and the Activity (SK-MEL-28 [26]) was 11.1%. It also gave an Activity (SK-MEL-28 [27]) of 3.59%, an Activity (SK-MEL-28 [28]) of 23.01% and a viability at 2 µM (SK-MEL-28 [29]) of 27.2%. For the same molecule, the Activity (SK-MEL-28 [30]) was 6.54% and the Activity (SK-MEL-28 [31]) was “Dose-Dependent Effect”.
